Measurements reported in patent publication US20220409614A1, “TREATING BEHAVIORAL AND PSYCHOLOGICAL SYMPTOMS IN DEMENTIA PATIENTS” (SUVEN LIFE SCIENCES LIMITED, priority 2019, published 2022).
Read-outs that look alike come from different tables or passages of the source.

Columns and labels:
[1] = tested on: patients with AD; conditions: citalopram treatment group; cited from earlier work
[2] = cited from earlier work
[3] = short-term treatment; cited from earlier work
[4] = tested on: subjects with moderate AD; experiment: Phase 2 study in moderate AD, ADAS-Cog 11 assessment; format: in vivo, humans; conditions: for change from baseline in ADAScog-11 scores vs placebo: 50 mg
Source text: The study consisted of a 2 to 4-week screening period, followed by a 26-week double-blind treatment period and a 4-week single-blind placebo washout period. […] Population: The study population included male or female subjects, 50 to 85 years of age, with moderate dementia due to probable AD (MMSE 12-20, both inclusive) based on the National Institute of Neurological and Communicative Diseases and Stroke/Alzheimer's Disease and Related Disorders Association ([…]) criteria, diagnosed at least 1 year prior to the study and receiving stable doses for at least 3 months of donepezil HCl (10 mg qd) and either memantine HCl (10 mg bid) or […]® (28 mg memantine HCl extended-release qd) or the combination therapy, NamzaricTM (28 mg memantine HCl extended-release/10 mg donepezil HCl) qd. […] Throughout the study, all subjects continued to receive donepezil HCl (10 mg qd) and memantine HCl (10 mg bid) or […]® (28 mg memantine HCl extended-release qd) or the combination therapy, NamzaricTM (28 mg memantine HCl extended-release/10 mg donepezil HCl) qd. […] During the washout period, all subjects were received placebo in addition to donepezil HCl and memantine HCl. The Alzheimer's Disease Assessment Scale-Cognitive Subscale (ADAS-Cog) was developed to assess the level of cognitive dysfunction in AD. It is also used for assessing the efficacy of anti-dementia treatments. The ADAScog-11 is a brief measure of cognition, including word recall, commands, constructional praxis, naming objects and fingers, ideational praxis, orientation, word recognition task, remembering test instructions, spoken language ability, word-finding difficulty, and comprehension of spoken language. The test is scored by an administrator who adds up points for the errors in each task for a total score ranging from 0 to 70. The greater the dysfunction, the greater the score. A score of 70 represents the most severe impairment. Data was analyzed using a mixed effects model for repeated measures (MMRM). The model included fixed categorical factors for treatment, week, treatment-by-week interaction, and APO-E status (carrier-one allele, carrier-two alleles, and non-carrier), as well as a continuous covariate of baseline score, the baseline score-by-week interaction, age, and baseline MMSE score. In subgroup analysis, stratification was based on the baseline symptoms and/or symptom emergence.

[5] = tested on: subjects with moderate AD; experiment: Phase 2 study in moderate AD, safety and tolerability assessment; set-up: species or system humans; conditions: in vivo
Method: The study consisted of a 2 to 4-week screening period, followed by a 26-week double-blind treatment period and a 4-week single-blind placebo washout period.
Throughout the study, all subjects continued to receive donepezil HCl (10 mg qd) and memantine HCl (10 mg bid) or Namenda XR® (28 mg memantine HCl extended-release qd) or the combination therapy, Namzaric™ (28 mg memantine HCl extended-release/10 mg donepezil HCl) qd.
The safety assessed by monitoring adverse events, physical examinations, vital signs, clinical laboratory tests and electrocardiograms.

[6] = tested on: subjects with moderate AD; experiment: Phase 2 study in moderate AD, NPI-12 (Neuropsychiatric Inventory) assessment; format: in vivo, humans; conditions: for effect on NPI domains as measured by the NPI-12 scale: overall statement
Source text: The study consisted of a 2 to 4-week screening period, followed by a 26-week double-blind treatment period and a 4-week single-blind placebo washout period. […] Population: The study population included male or female subjects, 50 to 85 years of age, with moderate dementia due to probable AD (MMSE 12-20, both inclusive) based on the National Institute of Neurological and Communicative Diseases and Stroke/Alzheimer's Disease and Related Disorders Association ([…]) criteria, diagnosed at least 1 year prior to the study and receiving stable doses for at least 3 months of donepezil HCl (10 mg qd) and either memantine HCl (10 mg bid) or […]® (28 mg memantine HCl extended-release qd) or the combination therapy, NamzaricTM (28 mg memantine HCl extended-release/10 mg donepezil HCl) qd. […] Throughout the study, all subjects continued to receive donepezil HCl (10 mg qd) and memantine HCl (10 mg bid) or […]® (28 mg memantine HCl extended-release qd) or the combination therapy, NamzaricTM (28 mg memantine HCl extended-release/10 mg donepezil HCl) qd. […] During the washout period, all subjects were received placebo in addition to donepezil HCl and memantine HCl. The NPI is a 12-item structured interview with a caregiver designed to assess behavioral disturbances in patients with dementia. The NPI comprises 10 behavioral (hallucinations, delusions, agitation/aggression, dysphoria/depression, anxiety, irritability, disinhibition, euphoria/elation, apathy and aberrant motor behavior), and neurovegetative items (sleep and night-time behavior change, appetite and eating change). The behavioral domains are assessed in terms of frequency, severity and distress. Each item consists of a screening question and several sub-questions which are rated no (not present) or yes (present). Each item is then rated for frequency (a 4-point scale from 1 [occasionally] to 4 [very frequently]), severity (a 3-point scale from 1 [mild] to 3 [marked]), and caregiver distress (a 6-point scale from 0 [not at all] to 5 [very severely or extremely]). The total score 12 items of the frequency and severity ratings range from 0 to 144 and the total score 12 items of caregiver distress ranges from 0 to 60. The NPI was administered to the subject's caregiver and scored by a qualified, trained rater at baseline and Weeks 4, 13 and 26. Data was analyzed using a mixed effects model for repeated measures (MMRM). The model included fixed categorical factors for treatment, week, treatment-by-week interaction, and APO-E status (carrier-one allele, carrier-two alleles, and non-carrier), as well as a continuous covariate of baseline score, the baseline score-by-week interaction, age, and baseline MMSE score. In subgroup analysis, stratification was based on the baseline symptoms and/or symptom emergence.

[7] = baseline domain score ≥1, mITT, 50 mg, Week 4
[8] = baseline domain score ≥1, mITT, 50 mg, Week 13
[9] = baseline domain score ≥1, mITT, 50 mg, Week 26
[10] = baseline domain score ≥1, mITT, 100 mg, Week 4
[11] = baseline domain score ≥1, mITT, 100 mg, Week 13
[12] = baseline domain score ≥1, mITT, 100 mg, Week 26

SMILES: CN(C)CCCC1(c2ccc(F)cc2)OCc2cc(C#N)ccc21 (stereo not drawn) [Citalopram]
- QT interval [1]: QT interval prolongation
- cognition [1]: Worsening of cognition

SMILES: CC(C)COc1ccc(CNC(=O)N(Cc2ccc(F)cc2)C2CCN(C)CC2)cc1 [Pimavanserin]
- effect on NPI-NH psychosis scale ([2]; week 6): statistically significant effect
- effect on NPI-NH psychosis scale ([2]; week 12): no effect was evident

SMILES: O=C1CCc2ccc(OCCCCN3CCN(c4cccc(Cl)c4Cl)CC3)cc2N1 [aripiprazole]
- symptomatic benefit in BPSD [3]: modest symptomatic benefit

SMILES: COc1ccc2c(c1)c(CN1CCN(C)CC1)cn2S(=O)(=O)c1ccccc1Br [masupirdine, 1-[(2-bromophenyl)sulfonyl]-5-methoxy-3-[(4-methyl-1-piperazinyl)methyl]-1H-indole]
- change from baseline in ADAScog-11 scores vs placebo ([4]; baseline delusion and/or hallucination score ≥1, mITT, Week 26): statistically significant treatment difference
- change from baseline in ADAScog-11 scores vs placebo ([4]; baseline delusion and/or hallucination score ≥1, treatment added as covariate): statistically significant treatment difference
- change from baseline in ADAScog-11 scores vs placebo ([4]; baseline delusion and/or hallucination score ≥1, treatment and time added as covariates): statistically significant treatment differences
- cognition as assessed by ADAS-Cog 11 scale ([4]; subjects with delusions and hallucinations (baseline symptoms)): significantly improved cognition
- change from baseline at Week 26 in ADAS-Cog 11 score (primary efficacy endpoint) ([4]; vs placebo, whole study population): did not show significant treatment advantage in cognition over placebo
- safety and tolerability [5]: safe and well tolerated with no significant adverse events
- change from baseline in mean NPI-12 scores vs placebo ([6]; 50 mg, Week 4): statistically significant treatment differences
- change from baseline in mean agitation/aggression domain scores of NPI-12 vs placebo ([6]; 50 mg, Week 26, no subgroup): statistically significant treatment difference
- mean NPI-12 scores ([6]; Week 13, all 3 treatment arms): remained similar to baseline
- mean NPI-12 scores ([6]; Week 26, masupirdine dose groups): remained similar to baseline
- change from baseline in NPI-12 domain sleep and nighttime behavior vs placebo ([6]; baseline domain score ≥1, 50 mg, Week 26): statistically significant treatment differences
- change from baseline in NPI-12 domain sleep and nighttime behavior vs placebo ([6]; baseline domain score ≥1, 100 mg, Week 13): statistically significant treatment difference
- change from baseline in NPI-12 domain sleep and nighttime behavior vs placebo ([6]; baseline domain score ≥1, 100 mg, Week 26): statistically significant treatment differences
- change from baseline in NPI-12 domain aberrant motor behavior vs placebo [6, 7]: statistically significant treatment differences
- change from baseline in NPI-12 domain delusions and/or hallucinations vs placebo [6, 7]: statistically significant treatment difference
- change from baseline in NPI-12 domain sleep and nighttime behavior vs placebo [6, 7]: statistically significant treatment difference
- change from baseline in mean euphoria/elation scores vs placebo [6, 7]: statistically significant treatment differences
- extended composite NPI-12 score domain (agitation/aggression, aberrant motor behavior and sleep and nighttime behavior disorders) vs placebo [6, 7]: statistically significant treatment differences
- change from baseline in NPI-12 domain aberrant motor behavior vs placebo [6, 8]: statistically significant treatment difference
- change from baseline in NPI-12 domain delusions and/or hallucinations vs placebo [6, 8]: statistically significant treatment difference
- change from baseline in mean agitation/aggression scores vs placebo [6, 8]: statistically significant treatment difference
- change from baseline in mean euphoria/elation scores vs placebo [6, 8]: statistically significant treatment differences
- change from baseline in mean agitation/aggression scores vs placebo [6, 9]: statistically significant treatment difference
- change from baseline in mean euphoria/elation scores vs placebo [6, 9]: statistically significant treatment differences
- extended composite NPI-12 score domain (agitation/aggression, aberrant motor behavior and sleep and nighttime behavior disorders) vs placebo [6, 9]: statistically significant treatment differences
- change from baseline in NPI-12 domain delusions and/or hallucinations vs placebo [6, 10]: statistically significant treatment difference
- change from baseline in NPI-12 domain sleep and nighttime behavior vs placebo [6, 10]: statistically significant treatment difference
- change from baseline in mean agitation/aggression scores vs placebo [6, 11]: statistically significant treatment difference
- extended composite NPI-12 score domain (agitation/aggression, aberrant motor behavior and sleep and nighttime behavior disorders) vs placebo [6, 11]: statistically significant treatment differences
- change from baseline in NPI-12 domain disinhibition vs placebo [6, 12]: statistically significant treatment difference
- extended composite NPI-12 score domain (agitation/aggression, aberrant motor behavior and sleep and nighttime behavior disorders) vs placebo [6, 12]: statistically significant treatment differences
- change from baseline in mean agitation/aggression scores vs placebo ([6]; baseline domain score ≥1, mITT, treatment and time added as covariates): statistically significant treatment differences
- extended composite NPI-12 score domain (agitation/aggression, aberrant motor behavior and sleep and nighttime behavior disorders) vs placebo ([6]; baseline domain score ≥1, treatment added as covariate, 50 mg): statistically significant treatment difference
- change from baseline in NPI-12 domain sleep and nighttime behavior vs placebo ([6]; baseline domain score ≥1, treatment added as covariate, 50 mg, Week 26): statistically significant treatment difference
- change from baseline in NPI-12 domain delusions and/or hallucinations vs placebo ([6]; baseline domain score ≥1, treatment added as covariate, 100 mg): statistically significant treatment difference
- change from baseline in NPI-12 domain sleep and nighttime behavior vs placebo ([6]; baseline domain score ≥1, treatment added as covariate, 100 mg, Week 26): statistically significant treatment difference
- change from baseline in NPI-12 domain delusions and/or hallucinations vs placebo ([6]; baseline domain score ≥1, treatment and time added as covariates): statistically significant treatment differences
- change from baseline in mean agitation/aggression scores vs placebo ([6]; baseline domain score ≥3, mITT, 50 mg, Week 13): statistically significant treatment difference
- change from baseline in mean agitation/aggression scores vs placebo ([6]; baseline domain score ≥3, mITT, 50 mg, Week 26): statistically significant treatment difference
- change from baseline in mean agitation/aggression scores vs placebo ([6]; baseline domain score ≥3, mITT, 100 mg, Week 13): statistically significant treatment difference
- change from baseline in mean agitation/aggression scores vs placebo ([6]; baseline domain score ≥3, treatment added as covariate, 50 mg, Week 26): statistically significant treatment difference
- change from baseline in mean agitation/aggression scores vs placebo ([6]; baseline domain score ≥3, treatment and time added as covariates): statistically significant treatment differences
- effect on NPI domains as measured by the NPI-12 scale [6]: beneficial effects
- effect on NPI domains as measured by the NPI-12 scale ([6]; listed as Masupirdine): significant treatment effect
- behavioral and psychological symptoms as assessed by NPI-12 subscale scores ([6]; subgroup analyses): significant improvement

SMILES: Cc1nc2n(c(=O)c1CCN1CCC(c3noc4cc(F)ccc34)CC1)CCCC2 [risperidone]
- symptomatic benefit in BPSD [3]: modest symptomatic benefit
